Test results published in PubChem BioAssay (NCI).
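Each compound was tested at five concentrations against cells in 96-well plates for 48 hours. The concentration for full growth arrest is given as TGI.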

Assays:
Assay in all cases: NCI-60 cell line screen, 48 h
[1] = test system: MOLT-4 leukemia
[2] = test system: HT29 colon
[3] = test system: SR leukemia
[4] = test system: SK-MEL-5 melanoma
[5] = test system: LOX IMVI melanoma
[6] = test system: UACC-62 melanoma
[7] = test system: UACC-257 melanoma
[8] = test system: CAKI-1 renal
[9] = test system: DU-145 prostate
[10] = test system: SK-OV-3 ovarian
[11] = test system: TK-10 renal
[12] = test system: COLO 205 colon
[13] = test system: MDA-MB-435
[14] = test system: IGROV1 ovarian
[15] = test system: ACHN renal
[16] = test system: CCRF-CEM leukemia
[17] = test system: NCI-H226 lung
[18] = test system: EKVX NSCLC
[19] = test system: SK-MEL-2 melanoma
[20] = test system: U251 CNS
[21] = test system: RXF 393 renal
[22] = test system: A549 NSCLC
[23] = test system: SK-MEL-28 melanoma
[24] = test system: MDA-MB-231 breast
[25] = test system: K-562 leukemia
[26] = test system: MDA-N
[27] = test system: SN12C renal
[28] = test system: HCC-2998 colon
[29] = test system: OVCAR-3 ovarian
[30] = test system: HCT-116 colon
[31] = test system: UO-31 renal
[32] = test system: A498 renal
[33] = test system: MALME-3M melanoma
[34] = test system: SW-620 colon
[35] = test system: SF-539 CNS
[36] = test system: SF-295 CNS
[37] = test system: 786-0 renal
[38] = test system: HL-60(TB) leukemia
[39] = test system: PC-3 prostate
[40] = test system: NCI-H23 lung
[41] = test system: OVCAR-8 ovarian
[42] = test system: SF-268 CNS
[43] = test system: OVCAR-4 ovarian
[44] = test system: HCT-15 colon
[45] = test system: BT-549 breast
[46] = test system: KM12 colon
[47] = test system: SNB-75 CNS
[48] = test system: T-47D breast
[49] = test system: MCF7 breast
[50] = test system: M14 melanoma
[51] = test system: NCI/ADR-RES ovarian
[52] = test system: OVCAR-5 ovarian
[53] = test system: RPMI-8226 leukemia
[54] = test system: HOP-62 NSCLC
[55] = test system: HS 578T breast
[56] = test system: NCI-H460 lung
[57] = test system: SNB-19 CNS
[58] = test system: NCI-H522 lung
[59] = test system: HOP-92 NSCLC

Work on `Cc1nn(-c2ccccc2)c(C)c1/C=N/NC(=O)c1sc(=S)n(-c2ccccc2)c1N` yielded a TGI [1] greater than 100 µM, a TGI [2] of 19.7 µM and a TGI [3] greater than 100 µM. The TGI [4] was greater than 100 µM, the TGI [5] was 5.12 µM and the TGI [6] was greater than 100 µM. The TGI [7] was greater than 100 µM, the TGI [8] was 7.53 µM and the TGI [9] was greater than 100 µM. The TGI [10] was greater than 100 µM, the TGI [11] was 7.19 µM and the TGI [12] was 3.55 µM. For the same compound, the TGI [13] was greater than 100 µM, the TGI [14] was 1.79 µM and the TGI [15] was 4.32 µM. It also gave a TGI [16] greater than 100 µM, a TGI [17] of 79.1 µM and a TGI [18] of 8.17 µM. It also gave a TGI [19] greater than 100 µM, a TGI [20] greater than 100 µM and a TGI [21] of 4.36 µM. The TGI [22] was 34.8 µM, the TGI [23] was 48 µM and the TGI [24] was 7.78 µM. For the same compound, the TGI [25] was greater than 100 µM, the TGI [26] was greater than 100 µM and the TGI [27] was greater than 100 µM. The TGI [28] was 13.5 µM, the TGI [29] was greater than 100 µM and the TGI [30] was 34.5 µM. It also gave a TGI [31] greater than 100 µM, a TGI [32] of 59.3 µM and a TGI [33] greater than 100 µM. For the same compound, the TGI [34] was greater than 100 µM, the TGI [35] was 25.6 µM and the TGI [36] was 6.55 µM. For the same compound, the TGI [37] was greater than 100 µM, the TGI [38] was greater than 100 µM and the TGI [39] was greater than 100 µM. It also gave a TGI [40] greater than 100 µM, a TGI [41] greater than 100 µM and a TGI [42] greater than 100 µM. It also gave a TGI [43] of 8.74 µM, a TGI [44] greater than 100 µM and a TGI [45] greater than 100 µM. The TGI [46] was greater than 100 µM, the TGI [47] was 3.98 µM and the TGI [48] was greater than 100 µM. The TGI [49] was greater than 100 µM, the TGI [50] was greater than 100 µM and the TGI [51] was greater than 100 µM. The TGI [52] was greater than 100 µM, the TGI [53] was 31.2 µM and the TGI [54] was greater than 100 µM. It also gave a TGI [55] of 8.46 µM, a TGI [56] of 16.3 µM and a TGI [57] greater than 100 µM.

`Cn1c(N/N=C/c2ccc(Cl)cc2)nc(-c2ccc(Cl)cc2)c(C#N)c1=O` gave a TGI [1] greater than 100 µM, a TGI [2] greater than 100 µM and a TGI [3] greater than 100 µM. It also gave a TGI [4] greater than 100 µM, a TGI [5] of 57.6 µM and a TGI [6] of 48.4 µM. The TGI [7] was greater than 100 µM, the TGI [8] was greater than 100 µM and the TGI [9] was 46.1 µM. The TGI [10] was greater than 100 µM, the TGI [11] was 76.3 µM and the TGI [12] was greater than 100 µM. The TGI [13] was greater than 100 µM, the TGI [14] was 25.6 µM and the TGI [15] was greater than 100 µM. For the same compound, the TGI [16] was greater than 100 µM, the TGI [18] was 68.4 µM and the TGI [19] was 33.1 µM. It also gave a TGI [58] of 33.6 µM, a TGI [20] of 72.1 µM and a TGI [21] of 57.8 µM. For the same compound, the TGI [22] was 39.2 µM, the TGI [23] was greater than 100 µM and the TGI [24] was 48.8 µM. For the same compound, the TGI [25] was greater than 100 µM, the TGI [26] was greater than 100 µM and the TGI [59] was 57.7 µM. It also gave a TGI [27] greater than 100 µM, a TGI [29] of 32.7 µM and a TGI [30] of 26.3 µM. It also gave a TGI [31] of 33 µM, a TGI [32] of 93.5 µM and a TGI [33] of 91.7 µM. It also gave a TGI [34] greater than 100 µM, a TGI [35] of 45 µM and a TGI [36] of 41.5 µM. For the same compound, the TGI [37] was 29.8 µM, the TGI [38] was greater than 100 µM and the TGI [39] was 90.1 µM. The TGI [40] was 38.6 µM, the TGI [41] was 44.6 µM and the TGI [42] was greater than 100 µM. The TGI [43] was 61.7 µM, the TGI [44] was greater than 100 µM and the TGI [45] was 67.5 µM. The TGI [46] was 57.6 µM, the TGI [47] was 73.2 µM and the TGI [48] was greater than 100 µM. It also gave a TGI [49] of 67.8 µM, a TGI [50] of 42 µM and a TGI [51] greater than 100 µM. It also gave a TGI [52] of 51.1 µM, a TGI [53] greater than 100 µM and a TGI [54] of 25.1 µM. The TGI [55] was 86.4 µM, the TGI [56] was greater than 100 µM and the TGI [57] was greater than 100 µM.
